# According to ChEMBL document CHEMBL5360560, “Anti-Vibrio potential of natural products from marine microorganisms” (Eur J Med Chem, 2023):
# Legend:
# Format in all cases: functional
# Vibrio harveyi [1] = assay: Antimicrobial activity against Vibrio harveyi assessed as bacterial growth inhibition
# Vibrio natriegens = assay: Antimicrobial activity against Vibrio natriegens assessed as bacterial growth inhibition
# Vibrio proteolyticus = assay: Antimicrobial activity against Vibrio proteolyticus assessed as bacterial growth inhibition
# Vibrio harveyi [2] = assay: Antimicrobial activity against Vibrio harveyi QDIO-7 assessed as bacterial growth inhibition by microplate reader assay
# Vibrio vulnificus [3] = assay: Antimicrobial activity against Vibrio vulnificus QDIO-7 assessed as bacterial growth inhibition by microplate reader assay
# Vibrio parahaemolyticus [4] = assay: Antimicrobial activity against Vibrio parahaemolyticus ATCC 17802 assessed as bacterial growth inhibition mesured after 48 hrs by broth dilution assay
# Vibrio parahaemolyticus [5] = assay: Bactericidal activity against Vibrio parahaemolyticus ATCC 17802 assessed as bacterial growth inhibition mesured after 48 hrs by broth dilution assay
# Vibrio parahaemolyticus [6] = assay: Antibacterial activity against Vibrio parahaemolyticus assessed as bacterial growth inhibition by agar dilution method
# Vibrio vulnificus [7] = assay: Antimicrobial activity against Vibrio vulnificus assessed as bacterial growth inhibition
# Vibrio rotiferianus [8] = assay: Antimicrobial activity against Vibrio rotiferianus assessed as bacterial growth inhibition
# Vibrio campbellii [9] = assay: Antimicrobial activity against Vibrio campbellii assessed as bacterial growth inhibition
# Vibrio harveyi [10] = assay: Antimicrobial activity against Vibrio harveyi QDIO-9 assessed as bacterial growth inhibition
# Vibrio parahaemolyticus [11] = assay: Antimicrobial activity against Vibrio parahaemolyticus QDIO-10 assessed as bacterial growth inhibition
# Vibrio anguillarum [12] = assay: Antimicrobial activity against Vibrio anguillarum assessed as zone of inhibition in diameter per disk at 50 ug; conditions: read-out: IZ
# Vibrio harveyi [13] = assay: Antimicrobial activity against Vibrio harveyi assessed as zone of inhibition in diameter per disk at 50 ug; conditions: read-out: IZ
# Vibrio parahaemolyticus [14] = assay: Antimicrobial activity against Vibrio parahaemolyticus assessed as zone of inhibition in diameter per disk at 50 ug; conditions: read-out: IZ
# Vibrio splendidus [15] = assay: Antimicrobial activity against Vibrio splendidus assessed as zone of inhibition in diameter per disk at 50 ug; conditions: read-out: IZ
# Vibrio alginolyticus [16] = assay: Antibacterial activity against Vibrio alginolyticus assessed as zone of inhibition measured after 24 to 48 hrs by agar well diffusion assay; conditions: time 24-48 hrs
# Vibrio cholerae = assay: Antibacterial activity against Vibrio cholerae assessed as zone of inhibition measured after 24 to 48 hrs by agar well diffusion assay; conditions: time 24-48 hrs
# Vibrio parahaemolyticus [17] = assay: Antibacterial activity against Vibrio parahaemolyticus assessed as zone of inhibition measured after 24 to 48 hrs by agar well diffusion assay; conditions: time 24-48 hrs
# Vibrio parahaemolyticus [18] = assay: Antimicrobial activity against Vibrio parahaemolyticus assessed as zone of inhibition
# Vibrio anguillarum [19] = assay: Antimicrobial activity against Vibrio anguillarum assessed as zone of inhibition
# Vibrio harveyi [20] = assay: Antimicrobial activity against Vibrio harveyi assessed as zone of inhibition
# Vibrio splendidus [21] = assay: Antimicrobial activity against Vibrio splendidus assessed as zone of inhibition
# Vibrio sp. [22] = assay: Antibacterial activity against Vibrio sp. assessed as bacterial growth inhibition by GC-MS analysis
# Vibrio alginolyticus [23] = assay: Antimicrobial activity against Vibrio alginolyticus QDIO-7 assessed as bacterial growth inhibition by microtiter plate reader analysis
# Vibrio vulnificus [24] = assay: Antimicrobial activity against Vibrio vulnificus QDIO-4 assessed as bacterial growth inhibition by microtiter plate reader analysis
# Vibrio vulnificus [25] = assay: Antimicrobial activity against Vibrio vulnificus MCCC E1758 assessed as bacterial growth inhibition by resazurin dye based assay
# Vibrio campbellii [26] = assay: Antimicrobial activity against Vibrio campbellii MCCC E333 assessed as bacterial growth inhibition by resazurin dye based assay
# Vibrio alginolyticus [27] = assay: Antibacterial activity against Vibrio alginolyticus assessed as bacterial growth inhibition
# Vibrio rotiferianus [28] = assay: Antibacterial activity against Vibrio rotiferianus MCCC E385 assessed as bacterial growth inhibition measured after 24 hrs by resazurin dye based assay
# Vibrio parahaemolyticus [29] = assay: Antimicrobial activity against Vibrio parahaemolyticus assessed as bacterial growth inhibition by MTT assay
# Vibrio vulnificus [30] = assay: Antimicrobial activity against Vibrio vulnificus assessed as bacterial growth inhibition by MTT assay
# Vibrio parahaemolyticus [31] = assay: Antimicrobial activity against Vibrio parahaemolyticus ATCC 17802 assessed as bacterial growth inhibition by microplate reader assay
# Vibrio alginolyticus [32] = assay: Antimicrobial activity against Vibrio alginolyticus assessed as bacterial growth inhibition by microplate reader assay
# Vibrio ichthyoenteri = assay: Antimicrobial activity against Vibrio ichthyoenteri assessed as bacterial growth inhibition
# Vibrio sp. [33] = assay: Antibacterial activity against Vibrio sp. assessed as bacterial growth inhibition relative to control
# Vibrio harveyi [34] = assay: Antimicrobial activity against Vibrio harveyi assessed as bacterial growth inhibition by two fold dilution assay
smiles,measurement,setting,value
C=CC(C)(C)C1(CC2NC(=O)c3ccccc3N(C)C2=O)C(=O)N(O)c2ccccc21 (configuration not stated),MIC,Vibrio harveyi [1],1 µg/mL
same,MIC,Vibrio natriegens,1 µg/mL
same,MIC,Vibrio proteolyticus,0.1 µg/mL
COC(=O)CCc1oc2cc(O)cc(C)c2c1-c1cc(O)c(C)c(O)c1C,MIC,Vibrio harveyi [2],32 µg/mL
same,MIC,Vibrio vulnificus [3],64 µg/mL
COc1ccc(Oc2cc(C)cc(O)c2)c(O[C@@H]2O[C@H](CO)[C@H](O)[C@H](O)[C@H]2O)c1,MIC,Vibrio parahaemolyticus [4],0.625 µM
same,MBC,Vibrio parahaemolyticus [5],2.5 µM
CO[C@H](C)[C@@H](/C=C/C=C/C(=O)N(C)[C@H]1CCCN(C)C(=O)[C@H](C)N(C)C(=O)[C@H](C(C)C)N(C)C1=O)OC,MIC,Vibrio parahaemolyticus [6],25 µM
COC(OC)c1ccc2c(c1O)C(=O)c1ccccc1C2=O,MIC,Vibrio vulnificus [7],15.6 µg/mL
same,MIC,Vibrio rotiferianus [8],15.6 µg/mL
same,MIC,Vibrio campbellii [9],15.6 µg/mL
C=C[C@@]1(C)CCC2=C(C(=O)C=C3C(C)(C)CCC[C@]32O)[C@@H]1O,MIC,Vibrio harveyi [10],8 µg/mL
same,MIC,Vibrio parahaemolyticus [11],8 µg/mL
Cc1cc(O)cc(O)c1-c1cc2cc(O)cc(O)c2c(=O)o1,zone of inhibition at 50 µg/disc,Vibrio anguillarum [12],7 mm
same,zone of inhibition at 50 µg/disc,Vibrio harveyi [13],7 mm
same,zone of inhibition at 50 µg/disc,Vibrio parahaemolyticus [14],7 mm
same,zone of inhibition at 50 µg/disc,Vibrio splendidus [15],7 mm
CCCCCCCCCCCCC(=O)NCCC(C)C,inhibition zone (IZ),Vibrio alginolyticus [16],16.3 mm
same,inhibition zone (IZ),Vibrio cholerae,13.7 mm
same,inhibition zone (IZ),Vibrio parahaemolyticus [17],9.66 mm
CC(=O)CCC[C@H](C)[C@@H]1C=C[C@@](C)(O[C@H]2O[C@H](CO)[C@@H](O)[C@H](O)[C@H]2NC(C)=O)CC1,inhibition zone (IZ),Vibrio parahaemolyticus [18],6.1 mm
same,MIC,Vibrio anguillarum [19],6.1 µg/mL
same,MIC,Vibrio harveyi [20],6.1 µg/mL
same,MIC,Vibrio splendidus [21],6.1 µg/mL
O=C1CCC2(CCC(=O)N2)N1,MIC,Vibrio sp. [22],≤ 0.78 µg/mL
COC(=O)/C=C/C=C/C(=O)N[C@H]1CCCNC(=O)[C@H](C)N(C)C(=O)[C@H](C(C)C)N(C)C1=O,MIC,Vibrio parahaemolyticus [6],6.25 µM
CC(=O)OC/C=C\c1ccc(O)cc1CO,MIC,Vibrio alginolyticus [23],8 µg/mL
same,MIC,Vibrio vulnificus [24],8 µg/mL
Cc1c(O)cc(O)cc1[C@H](C)[C@@H](C)OC=O,MIC,Vibrio vulnificus [25],15.7 µg/mL
same,MIC,Vibrio campbellii [26],15.6 µg/mL
CCCCCCC(O)CCCCCC/C=C/C(O)C1C=C(NC(C)=O)C(=O)O1 (configuration not stated),MIC,Vibrio alginolyticus [27],8 µg/mL
CC[C@H](C)/C=C/C1=CC2=C(Cl)C(=O)[C@@]3(C)OC(=O)C(C(=O)[C@@H](C)[C@@H](C)O)=C3C2=CN1NC(=O)c1ccc(O)cc1,MIC,Vibrio rotiferianus [28],7.3 µg/mL
CC(=O)c1ccccc1C[C@@H](O)/C=C/CC(=O)O[C@@H]1/C=C/C=C\C[C@H](O)C[C@@H](O)/C=C/C=C/CCC[C@@H](C)OC(=O)/C=C\C=C\C1,MIC,Vibrio parahaemolyticus [29],3.12 µg/mL
same,MIC,Vibrio vulnificus [30],3.12 µg/mL
COc1c(Cl)c(C)c(Cl)c2c1[C@H]1c3c(O)c(C)cc(O)c3C[C@@H]1C(C)(C)O2 (racemic),MIC,Vibrio parahaemolyticus [31],20 µM
same,MIC,Vibrio alginolyticus [32],20 µM
COc1c(Cl)c(C)c(Cl)c2c1[C@H]1c3c(O)c(C)cc(O)c3C[C@H]1C(C)(C)O2 (racemic),MIC,Vibrio parahaemolyticus [31],10 µM
same,MIC,Vibrio alginolyticus [32],10 µM
Cc1cc(O)cc(Oc2cc(C)cc(O)c2O)c1 [CORDYOL C],MIC,Vibrio ichthyoenteri,40 µg/mL
COc1cc(C)c(Oc2cc(C)cc(O)c2)c(O)c1 [CYPERIN],MIC,Vibrio parahaemolyticus [4],0.312 µM
same,MBC,Vibrio parahaemolyticus [5],0.312 µM
Cc1cc(O)cc(Oc2cc(C)cc(O)c2)c1 [DIORCINOL],MIC,Vibrio ichthyoenteri,40 µg/mL
Cc1cc(O)c2c(c1)C(=O)c1cc(O)cc(O)c1C2=O [EMODIN],MIC,Vibrio vulnificus [7],15.6 µg/mL
same,MIC,Vibrio rotiferianus [8],15.6 µg/mL
same,MIC,Vibrio campbellii [9],15.6 µg/mL
COc1cc(-c2ccc(O)cc2)c(OC)c(O)c1-c1ccc(O)cc1 [TERPHENYLLIN],inhibition (INH),Vibrio sp. [33],>80%
COC(=O)C1=CC(=O)C=C(OC)C12Oc1cc(C)cc(OC)c1C2=O (configuration not stated) [TRYPACIDIN],MIC,Vibrio harveyi [34],31.2 µg/mL
